Experimental data published in patent publication US11535593B2, “3-phosphoglycerate dehydrogenase inhibitors and uses thereof” (Raze Therapeutics, Inc., priority 2016, dated 2022).
pIC50: −log10 of the molar value. Where two headings read alike, the source gives them in different places.

Molecular target: T1, Full length (FL) 3-Phosphoglycerate Dehydrogenase (PHGDH) (Homo sapiens, UniProt O43175)
T1 construct: Full length (FL) 3-Phosphoglycerate Dehydrogenase (PHGDH) Diaphorase coupled assay (500 uM NAD)
T1 sequence (O43175 1-533): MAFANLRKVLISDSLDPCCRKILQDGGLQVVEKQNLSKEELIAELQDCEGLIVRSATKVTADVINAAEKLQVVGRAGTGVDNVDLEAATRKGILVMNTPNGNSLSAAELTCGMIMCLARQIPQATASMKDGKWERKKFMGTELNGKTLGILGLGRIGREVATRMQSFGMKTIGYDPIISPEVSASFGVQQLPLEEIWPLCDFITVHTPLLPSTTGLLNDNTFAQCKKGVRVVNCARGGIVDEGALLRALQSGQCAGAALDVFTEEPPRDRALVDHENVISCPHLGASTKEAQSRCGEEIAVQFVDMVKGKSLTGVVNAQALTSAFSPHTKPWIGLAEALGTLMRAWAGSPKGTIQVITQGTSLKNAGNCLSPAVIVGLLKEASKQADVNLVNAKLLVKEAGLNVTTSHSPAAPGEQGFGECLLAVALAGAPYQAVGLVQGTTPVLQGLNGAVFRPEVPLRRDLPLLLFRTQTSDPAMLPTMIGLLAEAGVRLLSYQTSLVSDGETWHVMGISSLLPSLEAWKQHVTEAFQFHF
Assay: Full length (FL) PHGDH Diaphorase coupled assay (500 uM NAD)
Assay type: biochemical
Description: Full length (FL) 3-Phosphoglycerate Dehydrogenase (PHGDH) Diaphorase coupled assay (500 uM NAD)
PHGDH activity was determined by detecting the NADH produced during the reaction. Diaphorase was used to catalyze the oxidation of NADH with the concomitant reduction of resazurin to the fluorescent product resorufin. Resorufin fluorescence quantitatively reflected the production of NADH by the PHGDH reaction. To drive the forward reaction, two enzymes in the serine synthesis pathway subsequent to PHGDH, Phosphoserine aminotransferase (PSAT1) and phosphoserine phosphatase (PSPH) were also added to the reaction.

Row | pIC50 (5 nM PHGDH, 30° C., 60 minutes) | pIC50 (read-out: FL Diaphorase 500 μM NAD (PHGDH activity inhibition, IC50), 5 nM PHGDH, 30° C., 60 minutes) | SMILES
1 | 6.00 to 8.00 |  | CCC(C(=O)O)c1ccc([C@@H](CO)NC(=O)c2cc3c(Cl)c(Cl)c(OC)cc3n2C)cc1 (mixture of isomers) [Compound I-4, (±)-2-[4-[(1S)-1-[(4,5-dichloro-6-methoxy-1-methyl-indole-2-carbonyl)amino]-2-hydroxy-ethyl]phenyl]butanoic Acid]
2 | 6.00 to 8.00 |  | CCC(C(=O)O)c1ccc([C@@H](CO)NC(=O)c2cc3c(Cl)c(OC)ccc3n2C)cc1 (mixture of isomers) [Compound I-5, (±)-2-[4-[(1S)-1-[(4-chloro-5-methoxy-1-methyl-indole-2-carbonyl)amino]-2-hydroxy-ethyl]phenyl]butanoic Acid]
3 | 6.00 to 8.00 |  | CCC(C(=O)O)c1ccc([C@@H](CO)NC(=O)c2cc3c(Cl)c(Cl)ccc3n2C)cc1 (mixture of isomers) [Compound I-15, (±)-2-[4-[(1S)-1-[(4,5-dichloro-1-methyl-indole-2-carbonyl)amino]-2-hydroxy-ethyl]phenyl]butanoic Acid]
4 | 6.00 to 8.00 |  | CC(NC(=O)c1cc2c(Cl)c(Cl)ccc2n1C)c1ccc(CC(=O)O)cc1 (racemic) [Compound I-34, (±)-2-(4-(1-(4,5-Dichloro-1-methyl-1H-indole-2-carboxamido)ethyl)phenyl) acetic Acid]
5 | 5.30 to 6.00 |  | Cn1c(C(=O)NC(c2ccc(C(=O)O)cc2)C(F)(F)F)cc2c(Cl)c(Cl)ccc21 (racemic) [Compound I-38, (±)-4-(1-(4,5-Dichloro-1-methyl-1H-indole-2-carboxamido)-2,2,2-trifluoroethyl)benzoic Acid]
6 | 6.00 to 8.00 |  | CC(C)C(C(=O)O)c1ccc([C@@H](CO)NC(=O)c2cc3c(Cl)c(Cl)ccc3n2C)cc1 (mixture of isomers) [Compound I-56, (±)-2-[4-[(1S)-1-[(4,5-dichloro-1-methyl-indole-2-carbonyl)amino]-2-hydroxy-ethyl]phenyl]-3-methyl-butanoic Acid]
7 | 6.00 to 8.00 |  | CC(C)C(C(=O)O)c1ccc([C@@H](CO)NC(=O)c2cc3c(Cl)c(Cl)ccc3n2C)cc1 (single isomer, unassigned) [Compound I-54, (2R or 2S)-2-[4-[(1S)-1-[(4,5-dichloro-1-methyl-indole-2-carbonyl)amino]-2-hydroxy-ethyl]phenyl]-3-methyl-butanoic acid]
8 |  | 6.00 to 8.00 | CC(C)C(C(=O)O)c1ccc([C@@H](CO)NC(=O)c2cc3c(Cl)c(Cl)ccc3n2C)cc1 (single isomer, unassigned) [Compound I-55, (2S or 2R)-2-[4-[(1S)-1-[(4,5-dichloro-1-methyl-indole-2-carbonyl)amino]-2-hydroxy-ethyl]phenyl]-3-methyl-butanoic acid]
9 | 6.00 to 8.00 |  | Cn1c(C(=O)N[C@H](CO)c2ccc(C(C)(C)C(=O)O)cc2)cc2c(Cl)c(Cl)ccc21 [Compound I-1]
10 | 6.00 to 8.00 |  | COc1ccc2c(cc(C(=O)N[C@H](CO)c3ccc(C(C)(C)C(=O)O)cc3)n2C)c1Cl [Compound I-2]
11 | 6.00 to 8.00 |  | Cn1c(C(=O)N[C@H](CO)c2ccc(C3(C(=O)O)CC3)cc2)cc2c(Cl)c(Cl)ccc21 [Compound I-3]
12 | 6.00 to 8.00 |  | Cn1c(C(=O)NC(CF)c2ccc(C(=O)O)cc2)cc2c(Cl)c(Cl)ccc21 (stereo not drawn) [Compound I-6]
13 | 6.00 to 8.00 |  | COc1cc2c(cc(C(=O)N[C@H](CO)c3ccc(C(=O)O)cc3C)n2C)c(Cl)c1Cl [Compound I-7]
14 | 6.00 to 8.00 |  | COc1cc2c(cc(C(=O)N[C@H](CO)c3ccc(C(=O)O)cc3C)n2C)c(Cl)c1C [Compound I-8]
15 | 6.00 to 8.00 |  | COc1ccc2c(cc(C(=O)N[C@H](CO)c3ccc(CC(=O)O)cc3Cl)n2C)c1Cl [Compound I-9, 2-{3-chloro-4-[(1S)-1-[(4-chloro-5-methoxy-1-methyl-1H-indol-2-yl)formamido]-2-hydroxyethyl]phenyl}acetic acid]
16 | 6.00 to 8.00 |  | Cn1c(C(=O)N[C@H](CO)c2ccc(CC(=O)O)cc2Cl)cc2c(Cl)c(Cl)ccc21 [Compound I-10, 2-{3-chloro-4-[(1S)-1-[(4,5-dichloro-1-methyl-1H-indol-2-yl)formamido]-2-hydroxyethyl]phenyl}-acetic acid]
17 | 6.00 to 8.00 |  | COc1ccc2c(cc(C(=O)N[C@H](CO)c3ccc(C(=O)O)cc3C)n2C)c1Cl [Compound I-11]
18 | 6.00 to 8.00 |  | COc1cc2c(cc(C(=O)N[C@H](CO)c3ccc(C(=O)O)cc3F)n2C)c(Cl)c1C [Compound I-12]
19 | 6.00 to 8.00 |  | COc1ccc2c(cc(C(=O)N[C@H](CO)c3ccc(C(=O)O)cc3F)n2C)c1Cl [Compound I-13]
20 | 6.00 to 8.00 |  | CC(C(=O)O)c1ccc([C@@H](CO)NC(=O)c2cc3c(Cl)c(Cl)ccc3n2C)cc1 (stereo partly drawn) [Compound I-14]
21 | 6.00 to 8.00 |  | COc1cc2c(cc(C(=O)N[C@H](CO)c3ccc(C(=O)O)cc3Cl)n2C)c(Cl)c1C [Compound I-16, 3-chloro-4-[(1S)-1-[(4-chloro-6-methoxy-1,5-dimethyl-1H-indol-2-yl)formamido]-2-hydroxyethyl]benzoic acid]

Row | pIC50 (5 nM PHGDH, 30° C., 60 minutes) | pIC50 (read-out: FL Diaphorase 500 μM NAD (PHGDH activity inhibition, IC50), 5 nM PHGDH, 30° C., 60 minutes) | SMILES
22 | 6.00 to 8.00 |  | COc1cc2c(cc(C(=O)N[C@H](CO)c3ccc(C(=O)O)cc3Cl)n2C)c(Cl)c1Cl [Compound I-17, 3-chloro-4-[(1S)-1-[(4,5-dichloro-6-methoxy-1-methyl-1H-indol-2-yl)formamido]-2-hydroxyethyl]benzoic acid]
23 | 6.00 to 8.00 |  | Cc1cc(C(=O)O)ccc1[C@@H](CO)NC(=O)c1cc2c(Cl)c(Cl)ccc2n1C [Compound I-18]
24 | 6.00 to 8.00 |  | Cc1cc(CC(=O)O)ccc1[C@@H](CO)NC(=O)c1cc2c(Cl)c(Cl)ccc2n1C [Compound I-19]
25 | 6.00 to 8.00 |  | COc1cc2c(cc(C(=O)N[C@H](CO)c3ccc(C(=O)O)cc3F)n2C)c(Cl)c1Cl [Compound I-20]
26 | 6.00 to 8.00 |  | COc1ccc2c(cc(C(=O)N[C@H](CO)c3ccc(C(=O)O)cc3Cl)n2C)c1Cl [Compound I-21, 3-chloro-4-[(1S)-1-[(4-chloro-5-methoxy-1-methyl-1H-indol-2-yl)formamido]-2-hydroxyethyl]benzoic acid]
27 | 6.00 to 8.00 |  | Cn1c(C(=O)N[C@H](CO)c2ccc(C(=O)O)cc2F)cc2c(Cl)c(Cl)ccc21 [Compound I-22]
28 | 6.00 to 8.00 |  | COc1ccc2c(cc(C(=O)N[C@H](CO)c3ccc(CC(=O)O)cc3)n2C)c1Cl [Compound I-23, 2-{4-[(1S)-1-[(4-chloro-5-methoxy-1-methyl-1H-indol-2-yl)formamido]-2-hydroxyethyl]phenyl}acetic acid]
29 | 6.00 to 8.00 |  | COc1cc2c(cc(C(=O)N[C@H](CO)c3ccc(CC(=O)O)cc3F)n2C)c(Cl)c1F [Compound I-24]
30 | 6.00 to 8.00 |  | COc1cc2c(cc(C(=O)N[C@H](CO)c3ccc(CC(=O)O)cc3F)n2C)c(Cl)c1C [Compound I-26]
31 | 6.00 to 8.00 |  | Cn1c(C(=O)N[C@H](CO)c2ccc(C(=O)O)cc2Cl)cc2c(Cl)c(Cl)ccc21 [Compound I-27, 3-chloro-4-[(1S)-1-[(4,5-dichloro-1-methyl-1H-indol-2-yl)formamido]-2-hydroxyethyl]benzoic acid]
32 | 6.00 to 8.00 |  | COc1cc2c(cc(C(=O)N[C@H](CO)c3ccc(CC(=O)O)cc3F)n2C)c(Cl)c1Cl [Compound I-28, 2-{4-[(1S)-1-[(4,5-dichloro-6-methoxy-1-methyl-1H-indol-2-yl)formamido]-2-hydroxyethyl]-3-fluorophenyl}acetic acid]
33 | 6.00 to 8.00 |  | Cn1c(C(=O)N[C@H](CO)c2ccc(CC(=O)O)cc2)cc2c(Cl)c(Cl)ccc21 [Compound I-29, 2-{4-[(1S)-1-[(4,5-dichloro-1-methyl-1H-indol-2-yl)formamido]-2-hydroxyethyl]phenyl}acetic acid]
34 | 6.00 to 8.00 |  | CC(NC(=O)c1cc2c(Cl)c(Cl)ccc2n1C)c1ccc(C(=O)O)cc1F (stereo not drawn) [Compound I-30]
35 | 6.00 to 8.00 |  | CC(NC(=O)c1cc2c(Cl)c(Cl)ccc2n1C)c1ccc(CC(=O)O)cc1F (stereo not drawn) [Compound I-31]
36 | 6.00 to 8.00 |  | Cn1c(C(=O)N[C@H](CO)c2ccc(CC(=O)O)cc2F)cc2c(Cl)c(Cl)ccc21 [Compound I-32, 2-{4-[(1S)-1-[(4,5-dichloro-1-methyl-1H-indol-2-yl)formamido]-2-hydroxyethyl]-3-fluorophenyl}acetic acid]
37 | 6.00 to 8.00 |  | CC(NC(=O)c1cc2c(Cl)c(Cl)ccc2n1C)c1ccc(C(=O)O)cc1Cl (stereo not drawn) [Compound I-33]
38 | 5.30 to 6.00 |  | Cn1c(C(=O)NC(C)(C)c2ccc(C(=O)O)cc2)cc2c(Cl)c(Cl)ccc21 [Compound I-35]
39 | 5.30 to 6.00 |  | Cn1c(C(=O)NC(CC2CC2)c2ccc(C(=O)O)cc2)cc2c(Cl)c(Cl)ccc21 (stereo not drawn) [Compound I-36]
40 | 5.30 to 6.00 |  | Cn1c(C(=O)NCc2ccc(C(=O)O)cc2)cc2c(Cl)c(Cl)ccc21 [Compound I-37]
41 | 6.00 to 8.00 |  | Cn1c(C(=O)N[C@H](CO)c2ccc(C(=O)O)cc2)cc2c(Cl)c(Cl)c(OCC(=O)NCCO)cc21 [Compound I-40, 4-[(1S)-1-[[4,5-Dichloro-6-[2-(2-hydroxyethylamino)-2-oxo-ethoxy]-1-methyl-indole-2-carbonyl]amino]-2-hydroxy-ethyl]benzoic Acid]
42 | 5.30 to 6.00 |  | Cn1c(C(=O)NC(c2ccc(C(=O)O)cc2)C2CC2)cc2c(Cl)c(Cl)ccc21 (stereo not drawn) [Compound I-42]
